What all share (assay): NCI tumour cell line growth inhibition, 48 h
In experiment [1] the test system is DU-145 prostate.
The subject of experiment [2] is HOP-18 NSCLC.
For experiment [3], the system named is M19-MEL melanoma.
Experiment [4] has as its system MCF7 breast.
Experiment [5] concerns MDA-MB-435.
In experiment [6] the test system is MDA-N.
Experiment [7] concerns NCI/ADR-RES ovarian.
Experiment [8] deals with P388 leukemia.
Experiment [9] concerns P388/ADR leukemia.
In experiment [10] the test system is PC-3 prostate.
In experiment [11] the test system is RXF-631 renal.

Results on 10 compounds are retold here after PubChem BioAssay (NCI).

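Results reflect a 48-hour exposure of cells in 96-well plates to compound at five concentrations. GI50: concentration for 50% inhibition of growth. TGI is the concentration that stops growth completely.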

With `COc1ccc(S(=O)(=O)N/N=C/C(=O)O)cc1`, the TGI in experiment [1] is 843 µM; in experiment [2], above 1250 µM; in [3], above 1250 µM; in [4], above 1210 µM; in experiment [5], above 1250 µM; in experiment [6], above 1200 µM. Also, the TGI in experiment [7] was 1030 µM; in experiment [8] it was 787 µM; in [9], 721 µM; in [10], above 1250 µM.

As for `COc1ccc2cccc(C(=N)c3ccc(C)c4c3CCC4)c2c1`, the TGI is 15.5 µM in experiment [2], 21.5 µM in experiment [3] and 4.37 µM in experiment [11].

Take `CC(C)OP(=O)(CP(=O)(OC(C)C)OC(C)C)OC(C)C.[CH3][Sn]([Br])([Br])[Br]`: the GI50 in [2], in experiment [3] and in experiment [11] was above 100 µM each time. For the same compound, the TGI in experiment [2], in [3] and in experiment [11] was above 100 µM in each case.

With `Brc1ccc2c(c1)C1(c3cc(Br)ccc3-2)c2cc(Br)ccc2-c2ccc(Br)cc21`, the TGI in experiment [2], in experiment [3] and in experiment [11] was above 100 µM throughout.

Regarding `COc1ccc([Se]c2ccc(OC)cc2OC)c(OC)c1`, the TGI in [2] was 86 µM; in [3], 87.1 µM; in experiment [11] it was above 100 µM.

In the case of `Oc1cc2cc(-c3ccccc3)[nH]c2c2ccccc12`, the TGI was above 96 µM in experiment [2], 28.9 µM in experiment [3] and above 89.8 µM in [11].

On to `O=C1OCC(C(=O)c2cccc(O)c2)C1=O` (stereo not given), for which the TGI in [2], in [3] and in experiment [11] was above 100 µM throughout.

As to `COC(=O)C12CC(C3CC31)C1CC12` (stereo not given), the TGI in experiment [2], in experiment [3] and in experiment [11] was above 100 µM each time.

For the compound `CCOC(=O)c1cnc2[nH]c(=O)c3ccccc3n2c1=O`, the TGI in experiment [2], in experiment [3] and in experiment [11] was above 100 µM each time.

Consider `COC(=O)C(CC=O)C(=O)C(=O)Nc1cccc(C(F)(F)F)c1` (stereo not given), for which the TGI in [2], in experiment [3] and in experiment [11] was above 100 µM each time.
